What was measured:
Notch-1 = assay: Promoter activity by Notch-1, luciferase reporter in LS174T cells co-cultured with 293-hDLL4; type: cell-based, human; details: antibody 20 mg/ml, DAPT 5 mM, co-culture with 293-hDLL4 24 hours, luminescence, versus untreated antibody group, FIG. 9
Procedure: 1×10^5 LS174T cells (colon cancer cell line; ATCC, CL-188™) were incubated in RPMI medium containing 10% of fetal calf serum for 24 hours, and 0.8 μg of Notch Cignal reporter DNA contained in Cignal Reporter Assay Kit (#336841 CCS-014L, QIAGEN) and 2 μl of lipofectamine (#11668-500; Invitrogen) were mixed with 100 μl of opti-MEM media and allowed to stand for 20 minutes, and then 400 μl of opti-MEM was added for transfection to incubate cells for 6 hours. After 6 hours, the medium was replaced with an MEM medium containing 10% fetal calf serum, and incubated overnight. Next day, Tanibirumab and PMC-201 (each of 20 mg/ml) were mixed and pre-treated in 1×10^5 of 293-hDLL4 cells for 1 hour, then co-cultured with LS174T cells transfected with Notch Cignal reporter DNA for 24 hours. DAPT (5 mM) was not pre-treated and 293-hDLL4 cell was mixed with the transfected LS174T cells, and co-cultured for 24 hours.
After co-culture for 24 hours, cells were lyzed by using a lysis buffer contained in Dual-Luciferase Reporter Assay System (Cat. # E1910; Promega), and a substrate and ATP were mixed with each other, and then luminescence amount was measured by using Luminometer.

human DLL4 = biological target: T1, human DLL4 (Homo sapiens, UniProt Q9NR61); assay: Biacore affinity analysis to human DLL4; type: binding; details: BIACORE 3000, CM5 chip, sample immobilized, DLL4 4.9-312.5 nM as antigen, FIG. 5
T1 construct: expressed in transfected cells; host or cells: 293 cells stably transfected with pcDNA-hDLL4 (293-DLL4 pool; clone 293-hDLL4)
T1 sequence (Q9NR61 27-685): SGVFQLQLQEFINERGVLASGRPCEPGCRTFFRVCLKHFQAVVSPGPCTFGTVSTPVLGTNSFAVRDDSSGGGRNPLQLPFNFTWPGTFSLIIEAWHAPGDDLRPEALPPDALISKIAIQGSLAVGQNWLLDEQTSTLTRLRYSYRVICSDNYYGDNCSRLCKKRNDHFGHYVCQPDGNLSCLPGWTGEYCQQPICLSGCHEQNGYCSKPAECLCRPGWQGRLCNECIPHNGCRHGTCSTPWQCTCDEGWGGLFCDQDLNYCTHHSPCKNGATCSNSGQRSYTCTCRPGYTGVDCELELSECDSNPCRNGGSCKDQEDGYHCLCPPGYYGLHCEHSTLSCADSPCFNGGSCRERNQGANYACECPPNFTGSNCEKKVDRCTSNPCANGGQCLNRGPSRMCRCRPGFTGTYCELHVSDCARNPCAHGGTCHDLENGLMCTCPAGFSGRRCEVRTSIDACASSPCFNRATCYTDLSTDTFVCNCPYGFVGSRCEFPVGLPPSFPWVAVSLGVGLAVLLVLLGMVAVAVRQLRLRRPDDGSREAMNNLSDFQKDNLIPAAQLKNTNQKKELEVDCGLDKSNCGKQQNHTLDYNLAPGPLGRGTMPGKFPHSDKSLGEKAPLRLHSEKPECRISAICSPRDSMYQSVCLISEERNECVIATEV
Procedure: In order to calculate Kd (dissociation constant) of PMC-201 to human DLL4, BIACORE® 3000 (GE Healthcare) was used, and CM5 chip was used. The dissociation constant is similar to Km value, and is used as an affinity index of an enzyme to a substrate in an enzyme-substrate complex. The affinity between the enzyme and the substrate is increased as the dissociation constant is decreased.
The sample was immobilized by using 400 mM EDC (N-ethyl-N′-(dimethylaminopropyl) Carbodiimide), 100 mM NHS (N-Hydroxysuccinimide), and 1M ethanolamine hydrochloride (pH 8.5) that are an Amine Coupling Kit (GE Healthcare), and 20 mM sodium hydroxide as a generation buffer, and 1×PBS as an immobilization buffer were diluted, and then the analysis sample was 1:40 diluted in 10 mM acetate (pH 5.0) (GE Healthcare). The sample was immobilized at 4000RU (Response Unit). A buffer for measuring adsorption of the analysis sample was a HBS-EP buffer (GE Healthcare). DLL4s having measurement concentrations of 4.9, 9.7, 19.5, 39.1, 78.1, 156.3, 312.5 nM as an antigen were serial-diluted so as to have a final volume of 200 μl by using an HBS-EP buffer. Five concentrations of seven concentrations were selected and fitted. […] Affinity of the analysis sample was measured under conditions in which an analysis flow rate was 30 μl/min, a binding section was 60 seconds, and a dissociation was 300 seconds.

Molecule | promoter activation of NICD exhibited by Notch-1 activation of LS174T cells (Notch-1) | affinity (Kd, dissociation constant) to human DLL4 (human DLL4)
C[C@H](NC(=O)Cc1cc(F)cc(F)c1)C(=O)N[C@H](C(=O)OC(C)(C)C)c1ccccc1 [DAPT, N—[N-(3,5-Difluorophenacetyl)-L-alanyl]-S-phenylglycine t-butyl ester] | decreased | –
Notch-1 Fc: Notch-1 Fc protein used as comparator for binding to hDLL4 (protein, left off: a dimerising Fc or GST) ARGPRCSQPGETCLNGGKCEAANGTEACVCGGAFVGPRCQDPNPCLSTPCKNAGTCHVVDRRGVADYACSCALGFSGPLCLTPLDNACLTNPCRNGGTCDLLTLTEYKCRCPPGWSGKSCQQADPCASNPCANGGQCLPFEASYICHCPPSFHGPTCRQDVNECGQKPGLCRHGGTCHNEVGSYRCVCRATHTGPNCERPYVPCSPSPCQNGGTCRPTGDVTHECACLPGFTGQNCEENIDDCPGNNCKNGGACVDGVNTYNCRCPPEWTGQYCTEDVDECQLMPNACQNGGTCHNTHGGYNCVCVNGWTGEDCSENIDDCASAACFHGATCHDRVASFYCECPHGRTGLLCHLNDACISNPCNEGSNCDTNPVNGKAICTCPSGYTGPACSQDVDECSLGANPCEHAGKCINTLGSFECQCLQGYTGPRCEIDVNECVSNPCQNDATCLDQIGEFQCICMPGYEGVHCEVNTDECASSPCLHNGRCLDKINEFQCECPTGFTGHLCQ | – | affinity was confirmed
